{"source": "patent US12171755B2", "about": "“PAPD5 inhibitors and methods of use thereof” (Children's Medical Center Corporation, priority 2017, dated 2024)", "molecular_target": "T1, PAPD5 (Homo sapiens, UniProt Q8NDF8)", "T1 construct": "made in house", "T1 sequence (Q8NDF8 68-698 isoform Q8NDF8-5)": "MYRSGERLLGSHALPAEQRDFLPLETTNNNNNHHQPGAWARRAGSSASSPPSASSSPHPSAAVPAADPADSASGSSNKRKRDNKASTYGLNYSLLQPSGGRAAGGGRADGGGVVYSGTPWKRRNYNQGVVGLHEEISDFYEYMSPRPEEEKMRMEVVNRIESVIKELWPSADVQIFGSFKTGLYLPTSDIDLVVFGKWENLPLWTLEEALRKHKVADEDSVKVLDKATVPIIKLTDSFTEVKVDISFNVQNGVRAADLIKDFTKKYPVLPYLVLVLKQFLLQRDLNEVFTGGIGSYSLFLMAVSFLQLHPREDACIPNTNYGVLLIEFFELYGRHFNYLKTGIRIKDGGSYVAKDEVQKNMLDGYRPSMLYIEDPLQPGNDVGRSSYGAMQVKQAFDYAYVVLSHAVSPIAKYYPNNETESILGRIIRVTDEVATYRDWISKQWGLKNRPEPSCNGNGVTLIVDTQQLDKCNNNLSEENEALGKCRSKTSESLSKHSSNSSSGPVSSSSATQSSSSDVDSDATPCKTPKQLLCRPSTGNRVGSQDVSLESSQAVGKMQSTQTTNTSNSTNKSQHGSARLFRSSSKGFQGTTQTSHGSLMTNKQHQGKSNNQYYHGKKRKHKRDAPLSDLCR", "assay": "High-throughput luminescence (KinaseGlo) RNA polyadenylation assay, ATP utilization by recombinant PAPD5", "format": "biochemical", "conditions": "Table 4 (entries of Table 5), ratio of luminescence with inhibitor to DMSO; for Fold-change determined at compound concentration 33 μM: 33 μM compound; for Fold-change determined at compound concentration 100 μM: 100 μM compound, higher = higher inhibition", "how_it_was_run": "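Recombinant PAPD5 polyadenylates an oligonucleotide substrate using ATP, and remaining ATP is read by KinaseGlo luciferase luminescence. Compound was incubated for 2 h at room temperature, then with luciferase for 10 min.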"}
{"smiles": "NC1CCN(c2nc3c(cc2F)c(=O)c(C(=O)O)cn3-c2ccc(F)cc2F)C1", "note": "(centres unmarked) [Entry 62, 7-(3-aminopyrrolidin-1-yl)-1-(2,4-difluorophenyl)-6-fluoro-4-oxo-1,4-dihydro-1,8-naphthyridine-3-carboxylic acid]", "values": [{"measurement": "Fold-change determined at compound concentration 33 μM", "result": 1.298}, {"measurement": "Fold-change determined at compound concentration 100 μM", "result": 1.41}]}
{"smiles": "CCCCN(C)c1cc(C(=O)O)c2cc(NC(=O)c3ccccc3OC)ccc2n1", "note": "[Entry 31, 2-[butyl(methyl)amino]-6-[(2-methoxybenzoyl)amino]quinoline-4-carboxylic acid]", "values": [{"measurement": "Fold-change determined at compound concentration 33 μM", "result": 1.304}, {"measurement": "Fold-change determined at compound concentration 100 μM", "result": 1.895}]}
{"smiles": "COc1ccc(NC(=O)CCn2c(=O)c3cccn3c3ccccc32)c(OC)c1", "note": "[Entry 67, N-(2,4-dimethoxyphenyl)-3-(4-oxopyrrolo[1,2-a]quinoxalin-5-yl)propanamide]", "values": [{"measurement": "Fold-change determined at compound concentration 33 μM", "result": 1.122}, {"measurement": "Fold-change determined at compound concentration 100 μM", "result": 1.238}]}
{"smiles": "O=C(O)c1ccccc1C(=O)Nc1ccc(Br)c2cccnc12", "note": "[Entry 83, 2-[(5-bromoquinolin-8-yl)carbamoyl]benzoic acid]", "values": [{"measurement": "Fold-change determined at compound concentration 33 μM", "result": 1.041}, {"measurement": "Fold-change determined at compound concentration 100 μM", "result": 1.203}]}
{"smiles": "CCOC(=O)c1cccc(NC(=O)c2oc3c(c2C)-c2nn(CC)cc2CC3)c1", "note": "[Entry 173, ethyl 3-[(2-ethyl-8-methyl-4,5-dihydrofuro[2,3-g]indazole-7-carbonyl)amino]benzoate]", "values": [{"measurement": "Fold-change determined at compound concentration 33 μM", "result": 1.19}, {"measurement": "Fold-change determined at compound concentration 100 μM", "result": 1.657}]}
{"smiles": "Cn1c(=O)c2nc(SCCC(=O)O)n(Cc3ccc(F)cc3)c2n(C)c1=O", "note": "[Entry 78, 3-{[9-(4-fluorobenzyl)-1,3-dimethyl-2,6-dioxo-2,3,6,9-tetrahydro-1H-purin-8-yl]sulfanyl}propanoic acid]", "values": [{"measurement": "Fold-change determined at compound concentration 33 μM", "result": 1.05}, {"measurement": "Fold-change determined at compound concentration 100 μM", "result": 1.26}]}
{"smiles": "Cc1ccc(-c2n[nH]c3nc(-c4ccc(O)c(O)c4)cc(C(=O)O)c23)cc1", "note": "[Entry 180, 6-(3,4-dihydroxyphenyl)-3-(p-tolyl)-1H-pyrazolo[3,4-b]pyridine-4-carboxylic acid]", "values": [{"measurement": "Fold-change determined at compound concentration 33 μM", "result": 1.303}, {"measurement": "Fold-change determined at compound concentration 100 μM", "result": 1.736}]}
{"smiles": "Cc1oc2ccccc2c1C(=O)CSc1nc(O)c2nc[nH]c2n1", "note": "[Entry 164, 2-[(6-hydroxy-9H-purin-2-yl)thio]-1-(2-methyl-1-benzofuran-3-yl)ethanone]", "values": [{"measurement": "Fold-change determined at compound concentration 33 μM", "result": 1.126}, {"measurement": "Fold-change determined at compound concentration 100 μM", "result": 1.293}]}
{"smiles": "O=c1oc2cc(O)c(O)cc2c2c1CCCC2", "note": "[Entry 118, 2,3-dihydroxy-7,8,9,10-tetrahydro-6H-benzo[c]-chromen-6-one]", "values": [{"measurement": "Fold-change determined at compound concentration 33 μM", "result": 1.195}, {"measurement": "Fold-change determined at compound concentration 100 μM", "result": 1.615}]}
{"smiles": "CCOc1cc(C2CC(=O)Nc3c2sc(C(=O)O)c3-c2cccc(F)c2)ccc1OCC(N)=O", "note": "(centres unmarked) [Entry 198, 7-[4-(2-amino-2-oxoethoxy)-3-ethoxyphenyl]-3-(3-fluorophenyl)-5-oxo-4,5,6,7-tetrahydrothieno[3,2-b]pyridine-2-carboxylic acid]", "values": [{"measurement": "Fold-change determined at compound concentration 33 μM", "result": 1.084}, {"measurement": "Fold-change determined at compound concentration 100 μM", "result": 1.264}]}
{"smiles": "CC(C)C(CO)Nc1nc(Nc2ccc(C(=O)O)c(Cl)c2)c2ncn(C(C)C)c2n1", "note": "(stereo in doubt) [Entry 46, 2-chloro-4-[[2-[[(2R)-1-hydroxy-3-methylbutan-2-yl]amino]-9-propan-2-ylpurin-6-yl]amino]benzoic acid]", "values": [{"measurement": "Fold-change determined at compound concentration 33 μM", "result": 1.079}, {"measurement": "Fold-change determined at compound concentration 100 μM", "result": 1.328}]}
{"smiles": "O=c1oc2cc(OCc3nnn[nH]3)c(Cl)cc2c2c1CCC2", "note": "[Entry 133, 8-chloro-7-(1H-tetrazol-5-ylmethoxy)-2,3-dihydrocyclopenta[c]chromen-4(1H)-one]", "values": [{"measurement": "Fold-change determined at compound concentration 33 μM", "result": 1.186}, {"measurement": "Fold-change determined at compound concentration 100 μM", "result": 1.508}]}
{"smiles": "O=C(CCCn1c(=O)c2cccn2c2ccc(Br)cc21)N1CCCC1", "note": "[Entry 65, 7-bromo-5-(4-oxo-4-pyrrolidin-1-ylbutyl)pyrrolo[1,2-a]quinoxalin-4-one]", "values": [{"measurement": "Fold-change determined at compound concentration 33 μM", "result": 1.23}, {"measurement": "Fold-change determined at compound concentration 100 μM", "result": 1.394}]}
{"smiles": "Cn1nc(-c2ccc(Cl)cc2)c2cc(C(=O)O)sc21", "note": "[Entry 205, 3-(4-chlorophenyl)-1-methylthieno[2,3-c]pyrazole-5-carboxylic acid]", "values": [{"measurement": "Fold-change determined at compound concentration 33 μM", "result": 1.232}, {"measurement": "Fold-change determined at compound concentration 100 μM", "result": 2.055}]}
{"smiles": "O=C(O)C1CCCN(c2nc3c(-c4ccccc4)csc3c(=O)[nH]2)C1", "note": "(centres unmarked) [Entry 39, 1-(4-oxo-7-phenyl-3,4-dihydrothieno[3,2-d]pyrimidin-2-yl)piperidine-3-carboxylic acid]", "values": [{"measurement": "Fold-change determined at compound concentration 33 μM", "result": 1.19}, {"measurement": "Fold-change determined at compound concentration 100 μM", "result": 1.527}]}
{"smiles": "COc1ccc(-c2coc3c2c(C)cc2oc(=O)c(CC(=O)O)c(C)c23)cc1", "note": "[Entry 132, [3-(4-methoxyphenyl)-4,9-dimethyl-7-oxo-7H-furo[2,3-f]chromen-8-yl]acetic acid]", "values": [{"measurement": "Fold-change determined at compound concentration 33 μM", "result": 1.303}, {"measurement": "Fold-change determined at compound concentration 100 μM", "result": 1.774}]}
{"smiles": "CCOC(=O)Cn1cnc2sc3c(c2c1=O)CCCC3", "note": "[Entry 211, Ethyl (4-oxo-5,6,7,8-tetrahydro[1]benzothieno[2,3-d]pyrimidin-3(4H)-yl)acetate]", "values": [{"measurement": "Fold-change determined at compound concentration 33 μM", "result": 1.065}, {"measurement": "Fold-change determined at compound concentration 100 μM", "result": 1.217}]}
{"smiles": "CCCn1c(=O)c2cc(F)ccc2n2c(=S)[nH]nc12", "note": "[Entry 72, 7-fluoro-4-propyl-1-thioxo-2,4-dihydro[1,2,4]triazolo[4,3-a]quinazolin-5(1H)-one]", "values": [{"measurement": "Fold-change determined at compound concentration 33 μM", "result": 1.099}, {"measurement": "Fold-change determined at compound concentration 100 μM", "result": 1.256}]}
{"smiles": "COc1ccc(-c2n[nH]c3nc(-c4ccc(O)c(O)c4)cc(C(=O)O)c23)cc1", "note": "[Entry 178, 6-(3,4-dihydroxyphenyl)-3-(4-methoxyphenyl)-1H-pyrazolo[3,4-b]pyridine-4-carboxylic acid]", "values": [{"measurement": "Fold-change determined at compound concentration 33 μM", "result": 1.217}, {"measurement": "Fold-change determined at compound concentration 100 μM", "result": 1.633}]}
{"smiles": "CC(=O)Nc1ccc2nc3c(=O)[nH]c(=O)[nH]c3nc2c1", "note": "[Entry 234, N-(2,4-dioxo-1H-benzo[g]pteridin-8-yl)acetamide]", "values": [{"measurement": "Fold-change determined at compound concentration 33 μM", "result": 1.319}, {"measurement": "Fold-change determined at compound concentration 100 μM", "result": 1.648}]}
{"smiles": "O=c1c(S(=O)(=O)c2cccc(F)c2)c[nH]c2c(F)c(Cl)ccc12", "note": "[Entry 104, 7-chloro-8-fluoro-3-(3-fluorophenyl)sulfonyl-1H-quinolin-4-one]", "values": [{"measurement": "Fold-change determined at compound concentration 33 μM", "result": 1.048}, {"measurement": "Fold-change determined at compound concentration 100 μM", "result": 1.235}]}
{"smiles": "Cc1ccc(Cl)cc1NC(=O)c1oc2c(c1C)-c1[nH]ncc1CC2", "note": "[Entry 174, N-(5-chloro-2-methylphenyl)-8-methyl-4,5-dihydro-1H-furo[2,3-g]indazole-7-carboxamide]", "values": [{"measurement": "Fold-change determined at compound concentration 33 μM", "result": 1.278}, {"measurement": "Fold-change determined at compound concentration 100 μM", "result": 1.87}]}
{"smiles": "COCCNC(=O)CSc1c2c(nc3cc(Cl)ccc13)CCCC2", "note": "[Entry 89, 2-[(6-chloro-1,2,3,4-tetrahydroacridin-9-yl)sulfanyl]-N-(2-methoxyethyl)acetamide]", "values": [{"measurement": "Fold-change determined at compound concentration 33 μM", "result": 1.098}, {"measurement": "Fold-change determined at compound concentration 100 μM", "result": 1.211}]}
{"smiles": "CN1C(=O)C(c2c(-c3ccc4ccccc4c3)[nH]c3[nH]c(=O)[nH]c(=O)c23)c2ccccc21", "note": "(centres unmarked) [Entry 236, 5-(1-methyl-2-oxo-2,3-dihydro-1H-indol-3-yl)-6-(2-naphthyl)-1H-pyrrolo[2,3-d]pyrimidine-2,4(3H,7H)-dione]", "values": [{"measurement": "Fold-change determined at compound concentration 10 μM", "setting": "10 μM compound", "result": 1.272}, {"measurement": "Fold-change determined at compound concentration 33 μM", "result": 1.39}, {"measurement": "Fold-change determined at compound concentration 100 μM", "result": 1.75}]}
{"smiles": "Cc1ccc(-n2c(N3CCCC(C(=O)O)C3)nc3ccsc3c2=O)cc1", "note": "(centres unmarked) [Entry 38, 1-[3-(4-methylphenyl)-4-oxo-3,4-dihydrothieno[3,2-d]pyrimidin-2-yl]piperidine-3-carboxylic acid]", "values": [{"measurement": "Fold-change determined at compound concentration 33 μM", "result": 1.207}, {"measurement": "Fold-change determined at compound concentration 100 μM", "result": 1.631}]}
{"smiles": "CCOc1cc(-c2cc(C(=O)O)c3c(-c4ccccc4)[nH]nc3n2)ccc1O", "note": "[Entry 181, 6-(3-ethoxy-4-hydroxyphenyl)-3-phenyl-2H-pyrazolo[3,4-b]pyridine-4-carboxylic acid]", "values": [{"measurement": "Fold-change determined at compound concentration 33 μM", "result": 1.124}, {"measurement": "Fold-change determined at compound concentration 100 μM", "result": 1.272}]}
{"smiles": "Cc1cc(C)c2nc(C)cc(C(=O)O)c2c1", "note": "[Entry 85, 2,6,8-trimethylquinoline-4-carboxylic acid]", "values": [{"measurement": "Fold-change determined at compound concentration 33 μM", "result": 1.061}, {"measurement": "Fold-change determined at compound concentration 100 μM", "result": 1.252}]}
{"smiles": "O=c1c2c([nH]c3nc(CNc4ccc(Br)cc4)nn13)CCC2", "note": "[Entry 152, 2-{[(4-bromophenyl)amino]methyl}-4,5,6,7-tetrahydro-8H-cyclopenta[d][1,2,4]triazolo[1,5-a]pyrimidin-8-one]", "values": [{"measurement": "Fold-change determined at compound concentration 33 μM", "result": 1.146}, {"measurement": "Fold-change determined at compound concentration 100 μM", "result": 1.461}]}
{"smiles": "CCOc1cccc2c1N[C@@H](c1ccc(C(=O)O)cc1)[C@H]1CC=C[C@@H]21", "note": "[Entry 101, 4-[(3aS,4R,9bR)-6-ethoxy-3a,4,5,9b-tetrahydro-3H-cyclopenta[c]quinolin-4-yl]benzoic acid]", "values": [{"measurement": "Fold-change determined at compound concentration 33 μM", "result": 1.265}, {"measurement": "Fold-change determined at compound concentration 100 μM", "result": 2.042}]}
